In patent US8383663B2, “Bendamustine anionic-catioinic cyclopolysaccharide compositions” (priority 2010, dated 2013):
Counter-ions that a name gives are not always drawn.

System: human breast carcinoma MDA-MB-231 cells
Assay: Growth of subcutaneous solid tumors of human breast carcinoma MDA-MB-231 cells in mice
Assay type: in vivo, Balb/c mice
Conditions: 35 mg/kg i.v. on day 1, 2, 13 and 14, Average (SEM)
Description: Effect of bendamustine in a composition comprising sodium sulfobutyl ether β-cyclodextrin and heptakis(6-amino-6-deoxy-β-cyclodextrin) on growth of subcutaneous solid tumors of human breast carcinoma MDA-MB-231 cells in Balb/c mice.
Balb/c mice aging 5 to 6 weeks were purchased from Charles River Canada Inc. The animals were kept 5 per cage with an air filter cover under light (12 light/dark cycle, light on at 6H00) and temperature (22°±1° C.)-controlled environment. All manipulations of animals were performed under a sterilized laminar. The animals had ad libitum access to Purina mouse chow (Pro Lab PMH 4018, Trademark of Agway, Syracuse, N.Y.) and water. These animal studies were conducted according to the “Guidelines for Care and Use of Experimental Animals”.
Human breast cancer cells MDA-MB 231 were cultured in the appropriated culture medium. The cells were harvested in their logarithmic growth phase for the preparation of tumor implantation.
MDA-MB-231 cells (5.0×10^5 cells per an injection) in culture medium with 30% Matrigel were subcutaneously inoculated at 2 sides of the flank of each animal. Nine to ten days after implantation, when tumor size reaches to 0.5 to 0.8 cm in the diameter, the animals were be randomly divided into groups, 5 animals per group. The treatments by intravenously injection were performed on day 1, 2, 13 and 14. The control group was treated with isotonic saline. The reference group was treated with 35 mg/kg dose of bendamustine HCl in water (7 mg/mL). The test group was treated with 60 mg/kg dose (equitoxic to the reference group treatment) of the composition of the present invention, comprising 13 mg/g bendamustine HCl, 20% SBECD and 1% H6A, and mannitol, prepared according to the procedure set forth in Example 1.
Subcutaneous solid tumor measurements were performed on the day of first injection and at 3- to 4-day intervals thereafter. Two largest perpendicular diameters of each tumor were measured with calipers and tumor size was estimated using formula […] where TV: tumor volume; L: length; W: width.
The body weights of animals were also noted.

Cn1c(CCCC(=O)O)nc2cc(N(CCCl)CCCl)ccc21 [Reference BM, bendamustine HCl]
Tumor weight after treatment (day 0): 0.111 (0.013) g | Tumor weight after treatment (day 2): 0.123 (0.016) g | Tumor weight after treatment (day 5): 0.134 (0.015) g | Tumor weight after treatment (day 7): 0.146 (0.017) g | Tumor weight after treatment (day 9): 0.156 (0.017) g | Tumor weight after treatment (day 12): 0.174 (0.018) g | Tumor weight after treatment (day 14): 0.205 (0.021) g | Tumor weight after treatment (day 16): 0.228 (0.024) g | Tumor weight after treatment (day 19): 0.248 (0.035) g | Tumor weight after treatment (day 21): 0.272 (0.042) g | Tumor weight after treatment (day 23): 0.296 (0.047) g
